According to ChEMBL document CHEMBL1131256, “Discovery of a novel series of potent and selective substrate-based inhibitors of p60c-src protein tyrosine kinase: conformational and topographical constraints in peptide design” (J Med Chem, 1998):

What was measured:
[1] = target: Proto-oncogene tyrosine-protein kinase Src (Homo sapiens, UniProt P12931); assay: Inhibition of c-Src tyrosine kinase.
[2] = target: Tyrosine-protein kinase Lck (Homo sapiens, UniProt P06239); assay: Inhibition of p56 Lck kinase against 100 uM cdc2 substrate
[3] = target: Tyrosine-protein kinase Lyn (Homo sapiens, UniProt P07948); assay: Inhibition of Lyn kinase against 100 uM cdc2 substrate
[4] = system: CC[C@H](C)[C@H](NC(=O)[C@@H](N)Cc1ccc(O)cc1)C(=O)N[C@@H](Cc1ccc(O)cc1)C(=O)NCC(=O)N[C@@H](CO)C(=O)N[C@@H](Cc1ccccc1)C(=O)N[C@@H](CCCCN)C(N)=O; assay: Inhibition of c-Src tyrosine kinase against 55 uM YIYGSFK-NH2 substrate; details: Homo sapiens

Sequence of Tyrosine-protein kinase Lck (P06239 whole entry): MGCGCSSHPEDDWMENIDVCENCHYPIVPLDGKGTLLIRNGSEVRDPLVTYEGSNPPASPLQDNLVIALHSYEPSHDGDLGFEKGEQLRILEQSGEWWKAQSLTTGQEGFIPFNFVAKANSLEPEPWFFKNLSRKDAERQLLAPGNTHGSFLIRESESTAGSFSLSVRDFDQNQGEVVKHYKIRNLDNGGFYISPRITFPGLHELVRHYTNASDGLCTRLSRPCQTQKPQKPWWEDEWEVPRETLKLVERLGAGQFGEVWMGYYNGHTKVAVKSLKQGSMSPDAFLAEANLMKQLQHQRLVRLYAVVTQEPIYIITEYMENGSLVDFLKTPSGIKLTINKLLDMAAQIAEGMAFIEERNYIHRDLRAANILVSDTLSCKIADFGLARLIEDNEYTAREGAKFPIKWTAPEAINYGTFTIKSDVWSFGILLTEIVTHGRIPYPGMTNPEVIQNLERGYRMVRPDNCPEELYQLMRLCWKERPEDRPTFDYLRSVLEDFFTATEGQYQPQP
Sequence of Tyrosine-protein kinase Lyn (P07948 whole entry): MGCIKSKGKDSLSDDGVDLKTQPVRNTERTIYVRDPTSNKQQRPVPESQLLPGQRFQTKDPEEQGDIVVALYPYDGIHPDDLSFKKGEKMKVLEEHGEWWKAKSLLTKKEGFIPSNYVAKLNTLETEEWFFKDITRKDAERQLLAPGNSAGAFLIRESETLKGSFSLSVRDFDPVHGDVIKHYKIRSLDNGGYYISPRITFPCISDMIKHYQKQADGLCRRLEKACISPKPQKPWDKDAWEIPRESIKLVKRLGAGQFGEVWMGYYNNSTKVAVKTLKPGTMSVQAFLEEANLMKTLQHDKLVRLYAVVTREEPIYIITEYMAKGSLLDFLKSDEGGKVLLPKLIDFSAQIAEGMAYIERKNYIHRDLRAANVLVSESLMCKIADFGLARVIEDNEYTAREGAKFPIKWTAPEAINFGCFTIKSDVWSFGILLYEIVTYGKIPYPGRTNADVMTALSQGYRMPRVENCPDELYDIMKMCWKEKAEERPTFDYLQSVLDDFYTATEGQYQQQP

| Compound | IC50 [1] | other results |
| --- | --- | --- |
| CC1(C)SSC[C@@H](C(=O)N[C@@H](CCCCN)C(N)=O)NC(=O)[C@H](Cc2ccccc2)NC(=O)[C@H](CO)NC(=O)CNC(=O)[C@H](Cc2ccc(O)cc2)NC(=O)[C@H]1NC(=O)[C@@H](N)Cc1ccc(O)cc1 | 6.7 µM | – |
| C[C@@H](c1ccc2ccccc2c1)[C@@H]1NC(=O)[C@H](NC(=O)[C@@H](N)Cc2ccc(O)cc2)C(C)(C)SSC[C@@H](C(=O)N[C@@H](CCCCN)C(=O)N[C@@H](CCCNC(=N)N)C(N)=O)NC(=O)[C@H](Cc2ccccc2)NC(=O)[C@H](CO)NC(=O)CNC1=O | – | IC50 [2]: 260 µM |
| CC(C)(S)[C@H](NC(=O)[C@@H](N)Cc1ccc(O)cc1)C(=O)N[C@@H](Cc1ccc2ccccc2c1)C(=O)NCC(=O)N[C@@H](CO)C(=O)N[C@@H](Cc1ccccc1)C(=O)N[C@@H](CS)C(=O)N[C@@H](CCCCN)C(=O)N[C@@H](CCCCN)C(N)=O | 2.7 µM | – |
| CC1(C)SSC[C@@H](C(=O)N[C@@H](CCCCN)C(=O)N[C@@H](CCCN=C(N)N)C(N)=O)NC(=O)[C@H](Cc2ccccc2)NC(=O)[C@H](CO)NC(=O)CNC(=O)[C@H](Cc2cc(I)c(O)c(I)c2)NC(=O)[C@@H]1NC(=O)[C@@H](N)Cc1ccc(O)cc1 | – | IC50 [3]: > 800 µM; IC50 [2]: 11 µM |
| Proto-oncogene tyrosine-protein kinase Src (Homo sapiens) (from UniProt P12931) | – | Km [4]: 55 µM |
| C[C@H](c1ccc2ccccc2c1)[C@@H]1NC(=O)[C@H](NC(=O)[C@@H](N)Cc2ccc(O)cc2)C(C)(C)SSC[C@@H](C(=O)N[C@@H](CCCCN)C(=O)N[C@@H](CCCNC(=N)N)C(N)=O)NC(=O)[C@H](Cc2ccccc2)NC(=O)[C@H](CO)NC(=O)CNC1=O | – | IC50 [2]: 220 µM |
| CC1(C)SSC[C@@H](C(=O)N[C@@H](CCCCN)C(=O)N[C@@H](CCCNC(=N)N)C(N)=O)NC(=O)[C@H](Cc2ccccc2)NC(=O)[C@H](CO)NC(=O)CNC(=O)[C@H](Cc2ccc(O)cc2)NC(=O)[C@H]1NC(=O)[C@@H](N)Cc1ccc(O)cc1 | 1.2 µM | – |
| CC(C)(S)[C@H](NC(=O)[C@@H](N)Cc1ccc(O)cc1)C(=O)N[C@@H](Cc1ccc(O)cc1)C(=O)NCC(=O)N[C@@H](CO)C(=O)N[C@@H](Cc1ccccc1)C(=O)N[C@@H](CS)C(=O)N[C@@H](CCCCN)C(=O)N[C@@H](CCCCN)C(N)=O | 5.3 µM | – |
| CC1(C)SSC[C@@H](C(=O)N[C@@H](CCCCN)C(=O)N[C@@H](CCCNC(=N)N)C(N)=O)NC(=O)[C@H](Cc2ccccc2)NC(=O)[C@H](CO)NC(=O)CNC(=O)[C@H](Cc2ccc(O)c(I)c2)NC(=O)[C@@H]1NC(=O)[C@@H](N)Cc1ccc(O)cc1 | – | IC50 [3]: > 800 µM; IC50 [2]: 11 µM |
| C[C@@H](c1ccc2ccccc2c1)[C@H]1NC(=O)[C@H](NC(=O)[C@@H](N)Cc2ccc(O)cc2)C(C)(C)SSC[C@@H](C(=O)N[C@@H](CCCCN)C(=O)N[C@@H](CCCNC(=N)N)C(N)=O)NC(=O)[C@H](Cc2ccccc2)NC(=O)[C@H](CO)NC(=O)CNC1=O | – | IC50 [2]: 260 µM |
| CC1(C)SSC[C@@H](C(=O)N[C@@H](CCCNC(=N)N)C(N)=O)NC(=O)[C@H](Cc2ccccc2)NC(=O)[C@H](CO)NC(=O)CNC(=O)[C@H](Cc2ccc(O)cc2)NC(=O)[C@H]1NC(=O)[C@@H](N)Cc1ccc(O)cc1 | 4.5 µM | – |
| CC[C@H](C)[C@@H]1NC(=O)[C@@H](N)CSSC[C@@H](C(=O)N[C@@H](CCCCN)C(=O)N[C@@H](CCCCN)C(=O)O)NC(=O)[C@H](Cc2ccccc2)NC(=O)[C@H](CO)NC(=O)CNC(=O)[C@H](Cc2ccc(O)cc2)NC1=O | 2.7 µM | – |
| CC1(C)SSC[C@@H](C(=O)N[C@@H](CCCCN)C(=O)N[C@@H](CCCCN)C(N)=O)NC(=O)[C@H](Cc2ccccc2)NC(=O)[C@H](CO)NC(=O)CNC(=O)[C@H](Cc2ccc(O)cc2)NC(=O)[C@H]1N | 14.4 µM | – |
| C[C@H]1NC(=O)[C@H](Cc2ccc(O)cc2)NC(=O)[C@@H](NC(=O)[C@@H](N)Cc2ccc(O)cc2)C(C)(C)SSC[C@@H](C(=O)N[C@@H](CCCCN)C(=O)N[C@@H](CCCCN)C(N)=O)NC(=O)[C@H](Cc2ccccc2)NC(=O)[C@H](CO)NC1=O | 18 µM | – |
| CC1(C)SSC[C@@H](C(=O)N[C@@H](CCCNC(=N)N)C(N)=O)NC(=O)[C@H](Cc2ccccc2)NC(=O)[C@H](CO)NC(=O)CNC(=O)[C@H](Cc2ccc3ccccc3c2)NC(=O)[C@@H]1NC(=O)[C@@H](N)Cc1ccc(O)cc1 | 3.3 µM | – |
| C[C@H](c1ccc2ccccc2c1)[C@H]1NC(=O)[C@H](NC(=O)[C@@H](N)Cc2ccc(O)cc2)C(C)(C)SSC[C@@H](C(=O)N[C@@H](CCCCN)C(=O)N[C@@H](CCCNC(=N)N)C(N)=O)NC(=O)[C@H](Cc2ccccc2)NC(=O)[C@H](CO)NC(=O)CNC1=O | – | IC50 [2]: 470 µM |

The next lines start with results.

| IC50 [1] | Compound | other results |
| --- | --- | --- |
| 20 µM | CC(=O)N[C@@H]1C(=O)N[C@@H](Cc2ccc(O)cc2)C(=O)NCC(=O)N[C@@H](CO)C(=O)N[C@@H](Cc2ccccc2)C(=O)N[C@H](C(=O)N[C@@H](CCCCN)C(=O)N[C@@H](CCCCN)C(N)=O)CSSC1(C)C | – |
| 11 µM | CC(=O)N[C@@H]1C(=O)N[C@@H](Cc2ccc(O)cc2)C(=O)NCC(=O)N[C@@H](CO)C(=O)N[C@@H](Cc2ccccc2)C(=O)N[C@H](C(=O)N[C@@H](CCCCN)C(=O)N[C@@H](CCCN=C(N)N)C(N)=O)CSSC1(C)C | – |
| 6.5 µM | CC(=O)N[C@@H](Cc1ccc(O)cc1)C(=O)N[C@@H]1C(=O)N[C@@H](Cc2ccc(O)cc2)C(=O)NCC(=O)N[C@@H](CO)C(=O)N[C@@H](Cc2ccccc2)C(=O)N[C@H](C(=O)N[C@@H](CCCCN)C(=O)N[C@@H](CCCN=C(N)N)C(N)=O)CSSC1(C)C | – |
| 6.9 µM | CC[C@H](C)[C@H](NC(=O)[C@@H](N)CS)C(=O)N[C@@H](Cc1ccc(O)cc1)C(=O)NCC(=O)N[C@@H](CO)C(=O)N[C@@H](Cc1ccccc1)C(=O)N[C@@H](CS)C(=O)N[C@@H](CCCCN)C(=O)N[C@@H](CCCCN)C(N)=O | – |
| 26 µM | CC(=O)N[C@@H](Cc1ccc(O)cc1)C(=O)N[C@@H]1C(=O)N[C@@H](Cc2ccc(O)cc2)C(=O)NCC(=O)N[C@@H](CO)C(=O)N[C@@H](Cc2ccccc2)C(=O)N[C@H](C(=O)N[C@@H](CCCCN)C(=O)N[C@@H](CCCCN)C(N)=O)CSSC1(C)C | – |
| 20 µM | CC1(C)SSC[C@@H](C(=O)N[C@@H](CCCCN)C(=O)N[C@@H](CCCN=C(N)N)C(N)=O)NC(=O)[C@H](Cc2ccccc2)NC(=O)[C@H](CO)NC(=O)CNC(=O)[C@H](Cc2ccc(O)cc2)NC(=O)[C@H]1N | – |
